Experimental data: ChEMBL document CHEMBL3886380, “Oxazole derivatives useful as modulators of FAAH” (2015)

Target: T1, Fatty-acid amide hydrolase 1 (Homo sapiens, UniProt O00519)
T1 sequence (O00519 whole entry): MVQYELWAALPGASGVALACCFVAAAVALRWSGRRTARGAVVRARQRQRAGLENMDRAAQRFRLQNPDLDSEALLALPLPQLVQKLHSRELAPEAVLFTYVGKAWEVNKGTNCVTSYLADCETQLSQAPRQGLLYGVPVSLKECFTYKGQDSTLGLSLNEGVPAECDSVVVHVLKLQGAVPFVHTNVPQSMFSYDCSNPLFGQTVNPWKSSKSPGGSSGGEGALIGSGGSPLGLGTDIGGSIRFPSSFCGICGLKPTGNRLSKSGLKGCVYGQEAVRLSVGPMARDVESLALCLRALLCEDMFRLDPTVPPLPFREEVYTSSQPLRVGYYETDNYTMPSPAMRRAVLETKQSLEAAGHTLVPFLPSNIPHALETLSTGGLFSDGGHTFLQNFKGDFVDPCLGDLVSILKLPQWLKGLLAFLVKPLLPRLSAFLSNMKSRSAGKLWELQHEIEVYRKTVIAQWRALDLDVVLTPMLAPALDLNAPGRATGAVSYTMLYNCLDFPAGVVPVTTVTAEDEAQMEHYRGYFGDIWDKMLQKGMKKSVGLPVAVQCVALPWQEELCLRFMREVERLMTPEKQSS
Assay: FAAH Assay: Enzyme activity was demonstrated in a radioenzymatic test based on measuring the product of hydrolysis (ethanolamine [3]H) of anandamide [ethanolamine 1-^3H] (American Radiolabeled Chemicals; 1 mCi/ml) with FAAH (Life Sciences (1995), 56, 1999-2005 and Journal of Pharmacology and Experimented Therapeutics (1997), 283, 729-734), Analytical. Biochemistry (2003), 318, 270-5. In …

Row | IC50 [µM] | Compound
1 | 9.15 | C[N+]1(C)CCN(c2ccc(-c3nc(C4CCOCC4)oc3Sc3ccc(Cl)cc3)cn2)CC1
2 | 3.09 | CN1CCN(CCOC(=O)N2CCC(c3nc(-c4ccc([S+](C)[O-])cc4)c(Sc4ccc(Cl)cn4)o3)CC2)CC1 (configuration not stated)
